{
  "source": "patent US20060205682A1",
  "about": "“Antibiotic and combinations of antibiotic and symptomatic relief agent formulations” (priority 2005, published 2006)",
  "assay": "physchem",
  "conditions": "pH 8, aqueous buffer, thermodynamic from solid",
  "protocol": "A 5 ml aliquot of 5% potassium phosphate buffer is added to 500 mg of gamma-cyclodextrin and sonicated until a clear solution is formed. […] The process is repeated with two additional amounts of gamma-cyclodextrin. Known aliquots of each solution are placed in a 2 cm cell and analyzed using a UV-Vis Spectrophotomer between the wavelengths 200-400 nm.",
  "data": [
    {"compound": "COc1cc(Cc2cnc(N)nc2N)cc(OC)c1OC", "note": "[trimethoprim]", "values": [
      {"measurement": "solubility thermodynamic at 30 min", "result": 350, "unit": "µg/mL"}
    ]}
  ]
}
